Non-standard residues stand in square brackets, D forms with d. Residues, ends and D or L forms follow the SMILES beside them. Nle = CCCC[C@H](N)C(=O)O; βAla = NCCC(=O)O
How the values were obtained:
[1] = biological target: T1, human recombinant NK2 receptors (Homo sapiens, UniProt P21452); assay: cell-based
T1 sequence (P21452 1-398): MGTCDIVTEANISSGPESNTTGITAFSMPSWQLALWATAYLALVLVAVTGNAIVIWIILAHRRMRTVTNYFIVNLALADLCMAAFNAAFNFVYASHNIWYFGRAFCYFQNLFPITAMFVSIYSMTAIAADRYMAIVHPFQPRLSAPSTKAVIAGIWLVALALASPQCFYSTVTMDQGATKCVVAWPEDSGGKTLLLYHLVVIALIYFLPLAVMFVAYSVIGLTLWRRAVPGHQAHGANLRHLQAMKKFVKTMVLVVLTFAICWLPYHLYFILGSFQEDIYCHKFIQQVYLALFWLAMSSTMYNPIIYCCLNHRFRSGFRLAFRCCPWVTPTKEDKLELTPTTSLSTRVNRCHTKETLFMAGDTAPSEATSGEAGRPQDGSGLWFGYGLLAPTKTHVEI
Experimental: (§1) Human recombinant NK2 and NK1 receptors were generated using stably transfected CHO cells (CHO-hNK2 and CHO-hNK1, respectively). Human NK2 or NK1 receptor expressing vectors from Genecopeia (Rockville, USA) were transfected in CHO cells using the standard FuGENE protocol and cells were selected using 450 μg/mL geneticin (G418). Clones expressing the receptors were selected by functional coupling to calcium using FLIPR and a single clone for each receptor subtype was selected for expansion and stable cell line generation. Cells were cultured in a humidified incubator with 5% CO2 in F12K medium containing 10% heat inactivated FBS and 450 μg/mL geneticin and passaged on reaching 80–90% confluence.
(§2) The agonist efficacy of the test compounds at recombinant human NK1 or NK2 receptors expressed in CHO cells was assessed by measuring the intracellular calcium response using the calcium-sensitive dye Fluo-4 AM (Eugene, OR, USA) and a Fluorometric Imaging Plate Reader (FLIPR, Molecular Devices, CA, USA). CHO-hNK1 and CHO-hNK2 cells were seeded into black walled clear-bottom 384-well plates at a density of 10,000 and 15,000 cells per well in 50 μL culture media, respectively, and grown overnight at 37°C in a humidified CO2-incubator. Cells were washed in washing buffer using an EMBLA 384 plate washer, leaving 20 μL of buffer per well after the final aspiration. Cells were then incubated at 37°C with the cytoplasmic Ca^2+ indicator Fluo-4 AM (final concentration 1 μM) in assay buffer (20 mM HEPES, 145 mM NaCl, 5 mM KCl, 5.5 mM glucose, 1 mM MgCl2 and 2 mM CaCl2, pH 7.4, 0.05% Pluronic F-127 and 0.1% BSA) containing 2.5 mM probenecid for 45–60 min (cell loading). Cells were then washed 3 times in washing buffer (20 mM HEPES, 145 mM NaCl, 5 mM KCl, 5.5 mM glucose, 1 mM MgCl2 and 2 mM CaCl2, pH 7.4 and 2.5 mM probenecid) using an EMBLA 384 plate washer, leaving 30 μL of buffer in each well after the last wash. Loaded cell plates were transferred to the FLIPR and calcium responses were monitored as described below. […] Concentration response curves of test compounds were generated in duplicate on at least two different occasions from the same stock solutions. Test solutions were prepared from 10 mM stock solutions in DMSO and 1 μL of each solution was stamped into V-bottom assay plates containing 49 μL assay buffer. The final concentration of DMSO was 0.5% in each well.

[2] = biological target: human recombinant NK1 receptors (Homo sapiens, UniProt P25103); assay: cell-based
Chain of human recombinant NK1 receptors (P25103 whole entry): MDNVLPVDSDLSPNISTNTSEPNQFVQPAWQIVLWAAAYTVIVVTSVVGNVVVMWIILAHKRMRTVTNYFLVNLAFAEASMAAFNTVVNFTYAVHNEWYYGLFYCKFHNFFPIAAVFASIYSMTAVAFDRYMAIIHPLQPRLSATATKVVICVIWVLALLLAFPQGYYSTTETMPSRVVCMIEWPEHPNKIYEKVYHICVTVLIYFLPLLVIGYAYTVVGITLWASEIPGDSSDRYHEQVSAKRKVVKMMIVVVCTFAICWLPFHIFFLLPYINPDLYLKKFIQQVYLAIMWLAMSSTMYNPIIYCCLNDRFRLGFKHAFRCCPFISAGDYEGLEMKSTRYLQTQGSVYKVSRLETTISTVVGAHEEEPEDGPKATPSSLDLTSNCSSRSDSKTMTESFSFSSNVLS
Experimental: as §1, §2

[3] = Intracellular Ca^2+ pEC50, CHO-hNK2 cells, mean ± SD
[4] = NK2 EC50 intracellular calcium response, CHO-hNK2 cells
[5] = Intracellular Ca^2+ pEC50, CHO-hNK1 cells, mean ± SD
[6] = NK1 EC50 intracellular calcium response, CHO-hNK1 cells

Structure (SMILES) | Intracellular Ca^2+ % Max [1] | EC50 [1, 3] | EC50 [1, 4] | Intracellular Ca^2+ % Max [2] | EC50 [2, 5] | EC50 [2, 6]
CSCC[C@H](NC(=O)[C@H](CC(C)C)NC(=O)CCNC(=O)[C@@H](NC(=O)[C@H](Cc1ccccc1)NC(=O)[C@H](CCCNC(=N)N)NC(=O)[C@@H](N)CC(=O)O)C(C)C)C(N)=O [[Arg^5,β-Ala^8]-NKA(4–10), Asp-Arg-Phe-Val-[β-Ala]-Leu-Met-NH2] (H-DRFV[βAla]LM-NH2) | 106.9 ± 8.9% | 151 pM | 150 pM | 101.5 ± 18.4% | 1820 pM | 1830 pM
CSCC[C@H](NC(=O)[C@H](CC(C)C)NC(=O)CNC(=O)[C@@H](NC(=O)[C@H](Cc1ccccc1)NC(=O)[C@H](CCCNC(=N)N)NC(=O)[C@@H](N)CC(=O)O)C(C)C)C(N)=O [[Arg^5]-NKA(4–10), Asp-Arg-Phe-Val-Gly-Leu-Met-NH2] (H-DRFVGLM-NH2) |  | 191 pM | 190 pM |  | 155 pM | 160 pM
CCCC[C@H](NC(=O)[C@H](CC(C)C)NC(=O)CNC(=O)[C@@H](NC(=O)[C@H](Cc1ccccc1)NC(=O)[C@H](CCCCN)NC(=O)[C@@H](N)CC(=O)O)C(C)C)C(N)=O [[Lys^5,Nle^10]-NKA(4–10), Asp-Lys-Phe-Val-Gly-Leu-Nle-NH2] |  | 380 pM | 380 pM |  | 2340 pM | 2360 pM
CCCC[C@H](NC(=O)[C@H](CC(C)C)NC(=O)CCNC(=O)[C@@H](NC(=O)[C@H](Cc1ccccc1)NC(=O)[C@H](CCCCN)NC(=O)[C@@H](N)CC(=O)O)C(C)C)C(N)=O [[Lys^5,β-Ala^8,Nle^10]-NKA(4–10), Asp-Lys-Phe-Val-[β-Ala]-Leu-Nle-NH2] (H-DKFV[βAla]L[Nle]-NH2) | 83.1 ± 25.5% | 3020 pM | 3000 pM | 107.0 ± 14.0% | 77600 pM | 78200 pM
CSCC[C@H](NC(=O)[C@H](CC(C)C)NC(=O)CCNC(=O)[C@@H](NC(=O)[C@H](Cc1ccccc1)NC(=O)[C@H](CCCCN)NC(=O)[C@@H](N)CC(=O)O)C(C)C)C(N)=O [[Lys^5,β-Ala^8]-NKA(4–10), Asp-Lys-Phe-Val-[β-Ala]-Leu-Met-NH2] (H-DKFV[βAla]LM-NH2) | 92.0 ± 3.8% | 174 pM | 180 pM | 105.8 ± 3.4% | 6310 pM | 6310 pM
CSCC[C@H](NC(=O)[C@H](CC(C)C)NC(=O)CNC(=O)[C@@H](NC(=O)[C@H](Cc1ccccc1)NC(=O)[C@H](CCCCN)NC(=O)[C@@H](N)CC(=O)O)C(C)C)C(N)=O [[Lys^5]-NKA(4–10), Asp-Lys-Phe-Val-Gly-Leu-Met-NH2] |  | 89.1 pM | 90 pM |  | 417 pM | 410 pM

Source: paper PMC6201908, “Affinity, potency, efficacy, and selectivity of neurokinin A analogs at human recombinant NK2 and NK1 receptors” (PLoS ONE, 2018)
